Experimental data from USRE49735E1 (BRISTOL-MYERS SQUIBB COMPANY, priority 2010, dated 2023).
Several values for one entry are separate records, joined by “and”; a condition that tells them apart may be missing. Identical values can stand only once.

Target: human mGluR5A (Homo sapiens, UniProt P41594)
Test: mGluR5 FLIPR Assay
Type: cell-based
Conditions: positive modulator activity; HEK293 (ZF) cells with human mGluR5A and rat GLAST; Ca++ response to ~EC10 glutamate

human mGluR5A, sequence (P41594 21-1180 isoform P41594-2): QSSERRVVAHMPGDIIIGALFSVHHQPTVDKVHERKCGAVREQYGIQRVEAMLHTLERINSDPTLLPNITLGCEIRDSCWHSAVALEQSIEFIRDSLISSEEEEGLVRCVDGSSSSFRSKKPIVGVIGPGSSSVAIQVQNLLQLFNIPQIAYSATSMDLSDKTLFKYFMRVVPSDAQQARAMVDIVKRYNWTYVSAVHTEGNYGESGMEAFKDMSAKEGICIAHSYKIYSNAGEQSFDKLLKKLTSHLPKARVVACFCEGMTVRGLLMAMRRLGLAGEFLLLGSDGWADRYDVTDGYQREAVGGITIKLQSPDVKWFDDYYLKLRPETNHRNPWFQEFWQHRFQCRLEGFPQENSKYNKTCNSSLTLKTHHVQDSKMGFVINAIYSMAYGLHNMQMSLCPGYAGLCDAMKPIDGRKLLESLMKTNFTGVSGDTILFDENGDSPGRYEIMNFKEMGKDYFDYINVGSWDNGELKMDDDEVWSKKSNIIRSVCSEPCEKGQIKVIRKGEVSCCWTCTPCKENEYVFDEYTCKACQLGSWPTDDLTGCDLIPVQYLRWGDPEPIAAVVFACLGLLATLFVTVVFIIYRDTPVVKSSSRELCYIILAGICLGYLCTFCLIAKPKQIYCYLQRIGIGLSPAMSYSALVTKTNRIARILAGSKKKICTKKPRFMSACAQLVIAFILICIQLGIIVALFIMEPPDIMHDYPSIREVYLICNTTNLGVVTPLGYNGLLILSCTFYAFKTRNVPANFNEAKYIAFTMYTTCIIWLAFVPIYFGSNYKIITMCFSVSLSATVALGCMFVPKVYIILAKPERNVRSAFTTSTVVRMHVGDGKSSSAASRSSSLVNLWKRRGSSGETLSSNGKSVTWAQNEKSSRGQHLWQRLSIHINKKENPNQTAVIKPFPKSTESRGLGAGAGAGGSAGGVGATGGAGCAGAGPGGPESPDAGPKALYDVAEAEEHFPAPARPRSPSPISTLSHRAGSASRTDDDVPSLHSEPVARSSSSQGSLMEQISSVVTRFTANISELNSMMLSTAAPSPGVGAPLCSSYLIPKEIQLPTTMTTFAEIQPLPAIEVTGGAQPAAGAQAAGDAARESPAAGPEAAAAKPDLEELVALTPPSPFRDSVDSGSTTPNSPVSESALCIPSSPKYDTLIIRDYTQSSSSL

COc1cccc([C@H]2OC(=O)N[C@@H]2c2cccc(C#Cc3ccnc(Cl)c3)c2)c1 [Example 57, (4R,5R)-4-(3-((2-Chloropyridin-4-yl)ethynyl)phenyl)-5-(3-methoxyphenyl)oxazolidin-2-one] and COc1cccc([C@H]2OC(=O)N[C@@H]2c2cccc(C#Cc3cccnc3Cl)c2)c1 [Example 85, (4R,5R)-4-(3-((2-Chloropyridin-3-yl)ethynyl)phenyl)-5-(3-methoxyphenyl)oxazolidin-2-one] cannot be ordered by EC50: greater than 30000 nM for the first, greater than 1000 nM for the second.

First: O=C1N[C@H](c2cccc(C#Cc3ccccc3F)n2)[C@@H](c2ccccc2)O1 (single isomer, unassigned) [Example 14]
Second: O=C1N[C@@H](c2cccc(C#Cc3ccccc3)c2)[C@H](c2ccccc2)O1 (single isomer, unassigned) [Example 96]
The EC50 of the first is higher: greater than 1000 nM for the first, 100 to 1000 nM for the second. The second is the more potent here.

Compared with O=C1N[C@@H](c2ccc(C#Cc3ccccc3)cn2)[C@H](c2cccc(F)c2)O1 [Example 409, (4S,5S)-5-(3-Fluorophenyl)-4-(5-(phenylethynyl)pyridin-2-yl)oxazolidin-2-one], O=C1N[C@@H](c2cccc(C#Cc3ccccc3)c2)[C@H](c2cccnn2)O1 [Example 242] is higher in EC50: 100 to 1000 nM for the first, greater than 1000 nM for the second.

Going from COc1cccc([C@@H]2OC(=O)N[C@H]2c2cccc(C#Cc3ccc(F)cc3)c2)c1 [Example 132, (4S,5S)-4-(3-((4-fluorophenyl)ethynyl)phenyl)-5-(3-methoxyphenyl)oxazolidin-2-one] to COc1cccc([C@H]2OC(=O)N[C@@H]2c2cccc(C#Cc3cccc(F)c3)c2)c1 [Example 133, (4R,5R)-4-(3-((3-fluorophenyl)ethynyl)phenyl)-5-(3-methoxyphenyl)oxazolidin-2-one], the EC50 falls from greater than 1000 nM to less than 100 nM.

First: O=C1N[C@H](c2cccc(C#Cc3cncc(F)c3)c2)[C@@H](c2cccnc2)O1 [Example 237]
Second: O=C1N[C@@H](c2cncc(C#Cc3ccccc3)c2)[C@H](c2ccnnc2)O1 (single isomer, unassigned) [Example 321]
The EC50 of the first is lower: 100 to 1000 nM for the first, greater than 1000 nM for the second.

Going from O=C1N[C@H](c2cncc(C#Cc3ccccc3)c2)[C@@H](c2ccc(F)c(F)c2)O1 [Example 172] to O=C1N[C@H](c2cncc(C#Cc3cccc(Cl)c3)c2)[C@@H](c2cccc(F)c2F)O1 [Example 280], the EC50 rises from less than 100 nM to greater than 1000 nM. The first is the more potent here.

O=C1N[C@H](c2cccc(C#Cc3ccnc(F)c3)n2)[C@@H](c2ccc(F)cc2)O1 (single isomer, unassigned) [Example 372] and O=C1N[C@H](c2cncc(C#Cc3ccnc(F)c3)c2)[C@@H](c2ccc(F)cc2)O1 [Example 214] cannot be ordered by EC50: less than 100 nM for the first, less than 100 nM for the second.

Going from COc1cccc(C#Cc2cccc([C@H]3NC(=O)O[C@@H]3c3cccc(OC)c3)c2)c1 [Example 59, (4R,5R)-5-(3-Methoxyphenyl)-4-(3-((3-methoxyphenyl)ethynyl)phenyl)oxazolidin-2-one] to COc1cccc([C@H]2OC(=O)N[C@@H]2c2cccc(C#Cc3cccc(C)n3)c2)c1 [Example 48, (4R,5R)-5-(3-Methoxyphenyl)-4-(3-((6-methylpyridin-2-yl)ethnyl)phenyl)oxazolidin-2-one], the EC50 rises from less than 100 nM to greater than 1000 nM.

C[C@@]1(c2ccc(F)cc2)OC(=O)N[C@H]1c1cncc(C#Cc2cncc(F)c2)c1 [Example 207] and Cc1cccc(C#Cc2cncc([C@H]3NC(=O)O[C@@H]3c3cc(F)ccc3F)c2)c1 [Example 387, (4R,5R)-5-(2,5-difluorophenyl)-4-(5-(m-tolylethynyl)pyridin-3-yl)oxazolidin-2-one] cannot be ordered by EC50: greater than 1000 nM for the first, greater than 1000 nM for the second.

First: Cc1ccc([C@@H]2OC(=O)N[C@H]2c2cccc(C#Cc3ccccc3)c2)cc1 (racemic) [Example 106, (±)-(phenylethynyl)phenyl)-5-p-tolyloxazolidin-2-one]
Second: O=C1N[C@@H](c2cccc(C#Cc3ccccc3)c2)[C@H](c2nc(-c3ccccn3)no2)O1 [Example 163]
The EC50 of the first is lower: less than 100 nM for the first, greater than 1000 nM for the second.

In the case of O=C1N[C@@H](c2ccnc(C#Cc3ccccc3)n2)[C@H](c2cccc(F)c2)O1 [Example 276], the EC50 is reported as 100 to 1000 nM and 468 nM.
C[C@@]1(c2ccc(F)cc2)OC(=O)N[C@@H]1c1cncc(C#Cc2ccccc2)c1 [Example 205] was tested, and the EC50 was < 100 nM and 2.2 nM.
